Reference: paper PMC5903252 (British Journal of Clinical Pharmacology, 2018)

Assay: Plasma pharmacokinetics of BMS-962212 after IV infusion
Details: for clearance / Vd / half-life / AUC(0-inf) / AUC(0-t) / Cmax / Tmax: human, in vivo
[1] = part B 1 mg h^−1, Japanese ethnicity (n = 4), geometric mean (CV%)
[2] = part B 1 mg h^−1, Non-Japanese ethnicity (n = 4), geometric mean (CV%)
[3] = part B 3 mg h^−1, Japanese ethnicity (n = 4), geometric mean (CV%)
[4] = part B 3 mg h^−1, Non-Japanese ethnicity (n = 4), geometric mean (CV%)
[5] = part B 9 mg h^−1, Japanese ethnicity (n = 4), geometric mean (CV%)
[6] = part B 9 mg h^−1, Non-Japanese ethnicity (n = 4), geometric mean (CV%)
[7] = part B 20 mg h^−1, Japanese ethnicity (n = 4), geometric mean (CV%)
[8] = part B 20 mg h^−1, Non-Japanese ethnicity (n = 4), geometric mean (CV%)

Compound CN1CCN(c2cccc3c2CCN(C(=O)/C=C/c2c(-n4cnnn4)ccc(Cl)c2F)[C@@H]3C(=O)Nc2ccc(C(=O)O)cc2)C(=O)C1 [BMS‐962212] has a clearance (iv, 1.5 mg h^−1, CL, part A 2-h IV infusion 1.5 mg h^−1, geometric mean (CV%)) of 276 mL/min, a Vd (iv, 1.5 mg h^−1, Vz, part A 2-h IV infusion 1.5 mg h^−1, geometric mean (CV%)) of 72.6 L and a half-life (iv, 1.5 mg h^−1, t1/2, part A 2-h IV infusion 1.5 mg h^−1, geometric mean (CV%)) of 122 min. It also gave an AUC(0-inf) (iv, 3 mg h^−1) of 21400 ng·h/mL, an AUC(0-t) (iv, 3 mg h^−1) of 21200 ng·h/mL and a Cmax (iv, 3 mg h^−1) of 202 ng/mL. For the same compound, the Tmax (iv, 3 mg h^−1) was 60 h, the clearance (iv, 3 mg h^−1, CL, part B 5-day IV infusion 3 mg h^−1, geometric mean (CV%)) was 280 mL/min and the Vd (iv, 3 mg h^−1, Vz, part B 5-day IV infusion 3 mg h^−1, geometric mean (CV%)) was 165 L. The half-life (iv, 3 mg h^−1, t1/2, part B 5-day IV infusion 3 mg h^−1, geometric mean (CV%)) was 373 min, the AUC(0-inf) (iv, 4 mg h^−1) was 377 ng·h/mL and the AUC(0-t) (iv, 4 mg h^−1) was 233 ng·h/mL. For the same compound, the Cmax (iv, 4 mg h^−1) was 182 ng/mL, the Tmax (iv, 4 mg h^−1) was 2 h and the clearance (iv, 4 mg h^−1, CL, part A 2-h IV infusion 4 mg h^−1, geometric mean (CV%)) was 358 mL/min. The Vd (iv, 4 mg h^−1, Vz, part A 2-h IV infusion 4 mg h^−1, geometric mean (CV%)) was 118 L, the half-life (iv, 4 mg h^−1, t1/2, part A 2-h IV infusion 4 mg h^−1, geometric mean (CV%)) was 237 min and the AUC(0-inf) (iv, 9 mg h^−1) was 55500 ng·h/mL. It also gave an AUC(0-t) (iv, 9 mg h^−1) of 54800 ng·h/mL, a Cmax (iv, 9 mg h^−1) of 520 ng/mL and a Tmax (iv, 9 mg h^−1) of 36 h. For the same compound, the clearance (iv, 9 mg h^−1, CL, part B 5-day IV infusion 9 mg h^−1, geometric mean (CV%)) was 324 mL/min, the Vd (iv, 9 mg h^−1, Vz, part B 5-day IV infusion 9 mg h^−1, geometric mean (CV%)) was 216 L and the half-life (iv, 9 mg h^−1, t1/2, part B 5-day IV infusion 9 mg h^−1, geometric mean (CV%)) was 519 min. The AUC(0-inf) (iv, 10 mg h^−1) was 1050 ng·h/mL, the AUC(0-t) (iv, 10 mg h^−1) was 664 ng·h/mL and the Cmax (iv, 10 mg h^−1) was 505 ng/mL. The Tmax (iv, 10 mg h^−1) was 2 h, the clearance (iv, 10 mg h^−1, CL, part A 2-h IV infusion 10 mg h^−1, geometric mean (CV%)) was 320 mL/min and the Vd (iv, 10 mg h^−1, Vz, part A 2-h IV infusion 10 mg h^−1, geometric mean (CV%)) was 126 L. For the same compound, the half-life (iv, 10 mg h^−1, t1/2, part A 2-h IV infusion 10 mg h^−1, geometric mean (CV%)) was 281 min, the AUC(0-inf) (iv, 20 mg h^−1) was 126000 ng·h/mL and the AUC(0-t) (iv, 20 mg h^−1) was 124000 ng·h/mL. The Cmax (iv, 20 mg h^−1) was 1170 ng/mL, the Tmax (iv, 20 mg h^−1) was 60 h and the clearance (iv, 20 mg h^−1, CL, part B 5-day IV infusion 20 mg h^−1, geometric mean (CV%)) was 317 mL/min. For the same compound, the Vd (iv, 20 mg h^−1, Vz, part B 5-day IV infusion 20 mg h^−1, geometric mean (CV%)) was 219 L, the half-life (iv, 20 mg h^−1, t1/2, part B 5-day IV infusion 20 mg h^−1, geometric mean (CV%)) was 459 min and the AUC(0-inf) (iv, 25 mg h^−1) was 2730 ng·h/mL. The AUC(0-t) (iv, 25 mg h^−1) was 1740 ng·h/mL, the Cmax (iv, 25 mg h^−1) was 1120 ng/mL and the Tmax (iv, 25 mg h^−1) was 2 h. It also gave a clearance (iv, 25 mg h^−1, CL, part A 2-h IV infusion 25 mg h^−1, geometric mean (CV%)) of 312 mL/min, a Vd (iv, 25 mg h^−1, Vz, part A 2-h IV infusion 25 mg h^−1, geometric mean (CV%)) of 129 L and a half-life (iv, 25 mg h^−1, t1/2, part A 2-h IV infusion 25 mg h^−1, geometric mean (CV%)) of 296 min. It also gave a clearance (iv, CL, range across panels, part A 2-h IV infusion) of 276 to 358 mL/min, a clearance (iv, CL, range across panels, part B 5-day IV infusion) of 280 to 324 mL/min and a Vd (iv, Vss, range across panels, 5-day IV infusion) of 164 to 218 L. It also gave a Vd (iv, Vz, range across panels, 2-h IV infusion) of 72 to 129 L, a half-life (t1/2 range over all dose groups, part B, Japanese subjects) of 385 to 497 min and a half-life (t1/2 range over all dose groups, part B, non-Japanese subjects) of 363 to 499 min. The “Steady‐state concentration” value [1] was 55.81 (20.5) ng ml ^−1, the “Weight‐corrected steady‐state concentration” value [1] was 4.21 (21.6) kg μg.ml ^−1 and the “Steady‐state concentration” value [2] was 49.88 (27.3) ng ml ^−1. The “Weight‐corrected steady‐state concentration” value [2] was 4.34 (15.5) kg μg.ml ^−1, the “Steady‐state concentration” value [3] was 188.03 (17.9) ng ml ^−1 and the “Weight‐corrected steady‐state concentration” value [3] was 14.33 (32.9) kg μg.ml ^−1. The “Steady‐state concentration” value [4] was 157.76 (12.9) ng ml ^−1, the “Weight‐corrected steady‐state concentration” value [4] was 14.10 (22.7) kg μg.ml ^−1 and the “Steady‐state concentration” value [5] was 439.27 (18.9) ng ml ^−1. The “Weight‐corrected steady‐state concentration” value [5] was 29.60 (18.9) kg μg.ml ^−1, the “Steady‐state concentration” value [6] was 458.34 (18.9) ng ml ^−1 and the “Weight‐corrected steady‐state concentration” value [6] was 34.47 (23.5) kg μg.ml ^−1. For the same compound, the “Steady‐state concentration” value [7] was 1161.68 (17.7) ng ml ^−1, the “Weight‐corrected steady‐state concentration” value [7] was 76.07 (30.1) kg μg.ml ^−1 and the “Steady‐state concentration” value [8] was 887.21 (23.3) ng ml ^−1. The “Weight‐corrected steady‐state concentration” value [8] was 70.57 (32.4) kg μg.ml ^−1 and the dose proportionality (parts A and B) was “demonstrated dose proportionality”.
